Paper PMC5011342, “A high throughput drug screening assay to identify compounds that promote oligodendrocyte differentiation using acutely dissociated and purified oligodendrocyte precursor cells” (BMC Research Notes, 2016)
Like-named read-outs stand apart in the source and are kept apart here.

Tests used:
[1] = tested on: acutely dissociated and purified rat OPCs; assay: Acute OL differentiation assay (MBP expression/cell, immunofluorescent image quantification); type: cell-based; conditions: Rattus norvegicus, sheet "All OLga data"
In short: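 Oligodendrocyte precursor cells were enriched from P6-P7 Sprague–Dawley rat brains by immunopanning (RAN-2 and GalC depletion, O4 selection), plated at 5000 cells/well in serum-free, mitogen-free differentiation media on PDL/laminin 96-well view plates, centrifuged at 200×g, and pre-incubated 1–2 h before test compounds were added in quadruplicate. On DIV4, cells were fixed, stained for MBP and DAPI, imaged automatically, and MBP expression per cell was quantified.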

[2] = tested on: expanded OPCs; assay: cells; conditions: for viability at 0.1 µM / viability at 1 µM / viability at 10 µM: Rattus norvegicus, 72 h; for 0.1 µM (% DMSO) / 1 µM (% DMSO) / 10 µM (% DMSO): alamarBlue viability of expanded OPCs, relative to DMSO control; for 0.1 µM (% DMSO): compound at 0.1 µM; for 1 µM (% DMSO): compound at 1 µM; for 10 µM (% DMSO): compound at 10 µM
In short: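 Expanded OPCs seeded at 10,000 cells/well in differentiation media, then exposed to NCC library compounds at 10, 1 and 0.1 µM (quadruplicate, 0.1% DMSO) for three days. Viability read as alamarBlue fluorescence (560/590 nm) after 4 h at 37 °C; tunicamycin 5 ng/ml served as toxicity control.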

[3] = test compound at 2 uM, NCC library screen, relative to quetiapine, read-out: 2 uM (% Quet)
[4] = test compound at 10 uM, NCC library screen, relative to quetiapine, read-out: 10 uM (% Quet)
[5] = read-out: 0.1 µM (% DMSO), alamarBlue viability, NCC library compound at 0.1 µM, sheet "All Tox data"
[6] = read-out: 1 µM (% DMSO), alamarBlue viability, NCC library compound at 1 µM, sheet "All Tox data"
[7] = read-out: 10 µM (% DMSO), alamarBlue viability, NCC library compound at 10 µM, sheet "All Tox data"
[8] = 2 uM test compound, relative to quetiapine, read-out: OL differentiation, 2 uM (% Quet)
[9] = 10 uM test compound, relative to quetiapine, read-out: OL differentiation, 10 uM (% Quet)
[10] = read-out: 0.1 µM (% DMSO), alamarBlue viability of expanded OPCs, compound at 0.1 µM, sheet All Tox data
[11] = read-out: 1 µM (% DMSO), alamarBlue viability of expanded OPCs, compound at 1 µM, sheet All Tox data
[12] = read-out: 10 µM (% DMSO), alamarBlue viability of expanded OPCs, compound at 10 µM, sheet All Tox data
[13] = 0.4 uM test compound, relative to quetiapine, read-out: OL differentiation, 0.4 uM (% Quet)

SMILES	viability at 0.1 µM [2, 5] [%]	viability at 1 µM [2, 6] [%]	viability at 10 µM [2, 7] [%]	activation at 2 µM [1, 8] [%]	activation at 10 µM [1, 9] [%]	viability at 0.1 µM [2, 10] [%]	viability at 1 µM [2, 11] [%]	viability at 10 µM [2, 12] [%]	further results
Cc1c(OCC(F)(F)F)ccnc1C[S+]([O-])c1nc2ccccc2[nH]1 (stereo not shown) [Lansoprazole]	94.2	86.3	99.9	–	–	–	–	–	activation at 2 µM [1, 3]: -3.1%; activation at 10 µM [1, 4]: -72%
CC(C)OC(=O)CCC/C=C\C[C@@H]1[C@@H](CC[C@@H](O)CCc2ccccc2)[C@H](O)C[C@@H]1O [Latanoprost]	–	–	–	-37.3	-143	85.2	91.5	81.4	–
C#C[C@]1(O)CC[C@H]2[C@@H]3CCC4=CC(=O)CC[C@@H]4[C@H]3CC[C@@]21CC [Levonorgestrel]	–	–	–	7.5	-8.6	97.5	88	91.5	–
CN1CC[C@]23CCCC[C@H]2[C@H]1Cc1ccc(O)cc13 [Levorphanol]	–	–	–	-6.9	17	77.4	83.4	74	–
CCN(CC)CC(=O)Nc1c(C)cccc1C [Lidocaine]	–	–	–	-0.03	17.6	84.8	86	85.5	–
CCC[C@@H]1C[C@@H](C(=O)N[C@@H]([C@H]2O[C@H](SC)[C@H](O)[C@@H](O)[C@H]2O)[C@@H](C)O)N(C)C1 [Lincomycin]	–	–	–	–	–	–	–	–	activation at 2 µM ([1]; test compound at 2 uM, MBP expression relative to quetiapine, NCC library screen, read-out: 2 uM (% Quet)): 12.6%; activation at 10 µM ([1]; test compound at 10 uM, MBP expression relative to quetiapine, NCC library screen, read-out: 10 uM (% Quet)): -2.9%; 0.1 µM (% DMSO) [2]: 93.6 % DMSO; 1 µM (% DMSO) [2]: 94.1 % DMSO; 10 µM (% DMSO) [2]: 87.7 % DMSO
O=C1N(c2ccccc2)c2ccccc2C1(Cc1ccncc1)Cc1ccncc1 [Linopirdine]	90.7	94.5	86.2	–	–	–	–	–	activation at 2 µM [1, 3]: -7.9%; activation at 10 µM [1, 4]: -12.7%
CN1[C@@H](CC(=O)c2ccccc2)CCC[C@H]1C[C@H](O)c1ccccc1 [Lobeline]	96.9	89.9	64.3	-5	0.65	–	–	–	–
CN(CCCN1c2ccccc2CCc2ccccc21)CC(=O)c1ccc(Cl)cc1 [Lofepramine]	–	–	–	-3.7	–	97.9	79.6	47.1	activation at 0.4 µM [1, 13]: 1.3%
COc1ccc(CN2CCN(C(c3ccc(F)cc3)c3ccc(F)cc3)CC2)c(OC)c1OC [Lomerizine]	92.5	58.5	11	-3.9	–	–	–	–	activation at 0.4 µM [1, 13]: 0.09%
CN(C)C(=O)C(CCN1CCC(O)(c2ccc(Cl)cc2)CC1)(c1ccccc1)c1ccccc1 [Loperamide]	–	–	–	–	–	–	–	–	activation at 0.08 µM ([1]; test compound at 0.08 uM, NCC library screen, relative to quetiapine, read-out: 0.08 uM (% Quet)): -0.19%; activation at 0.4 µM ([1]; test compound at 0.4 uM, NCC library screen, relative to quetiapine, read-out: 0.4 uM (% Quet)): -17.5%; 0.1 µM (% DMSO) [2]: 70.2 % DMSO; 1 µM (% DMSO) [2]: 40.0 % DMSO; 10 µM (% DMSO) [2]: 11.4 % DMSO
CCOC(=O)N1CCC(=C2c3ccc(Cl)cc3CCc3cccnc32)CC1 [Loratadine]	–	–	–	-36.8	–	90.8	77.7	13.9	activation at 0.4 µM [1, 13]: 5.6%
O=C1Nc2ccc(Cl)cc2C(c2ccccc2Cl)=NC1O (stereo not shown) [Lorazepam]	90.5	81.6	71.2	–	–	–	–	–	activation at 2 µM [1, 3]: -21.5%; activation at 10 µM [1, 4]: -31.2%
CCCCc1nc(Cl)c(CO)n1Cc1ccc(-c2ccccc2-c2nn[nH]n2)cc1 [Losartan]	–	–	–	5.2	-7.3	97.6	91.6	102	–
